The numbers were not newly measured in US20050063990A1, “Compositons and methods for weight loss” (priority 2003, published 2005), which cites them from elsewhere.

For data set [1] the following is noted: animal studies (mice fed CLA).

Regarding conjugated linoleic acid [CLA], the “increase in use of fat as fuel (energy expenditure)” value in data set [1] is 74%. The abdominal fat entry (men classified as abdominally obese) is listed as “decrease abdominal fat”. The total fat mass result (overweight and obese humans) is “reduces total fat mass”.
